Results as given in patent US20240116885A1, “BENZOTHIAZOLE AND QUINOLINE DERIVATIVES AND THEIR USE” (Shanghai Yao Yuan Biotechnology Co., Ltd., priority 2020, published 2024).

How the values were obtained:
ALPK1 = ALPK1 (Homo sapiens (Human), UniProt Q96QP1); test: ALPK1 in vitro kinase assay (HTRF, TIFA phosphorylation); format: biochemical; conditions: ADP-Heptose activated ALPK1
Protocol: ALPK1 kinase activity was measured in an in vitro assay using ADP-Heptose as the ALPK1 ligand and activator of its kinase activity and TIFA protein as the ALPK1 phosphorylation substrate. Since phosphorylated TIFA proteins oligomerize, Homogeneous Time-Resolved Fluorescence (HTRF) was used to measure protein:protein interaction between HA-tagged TIFA proteins as an indicator of TIFA phosphorylation.
In brief, dose-response studies were performed with HEK293 cells cultured in Dulbecco's Modified Eagle Medium (DMEM) supplemented 10% fetal bovine serum (FBS, Hyclone™) containing antibiotics (pen/strep, G418) in 384-well assay plates. Each well contained 0.1 mg TIFA, ALPK1 (2 nM final concentration in reaction mixture) and kinase buffer (100 mM of HEPES pH 7.4, 4 mM DTT, 40 mM MgCl2, 20 mM of β-Glycerol phosphate disodium salt, 0.4 mM of Na3VO4, 0.16 mg/mL). Titrations of the test compounds were prepared in dimethylsulphoxide (DMSO). The reaction was initiated by addition of ATP and ADP-Heptose.
For HTRF, samples were incubated with a Tb cryptate-labeled anti-HA antibody for capturing HA-tagged proteins according to the manufacturer's instructions (PerkinElmer™, CisBio™) and the fluorescence signal was quantified (Tecan Infinite F NANO+). HTRF signals were calculated as the HTRF ratio (ratio of fluorescence measured at 665 nm and 620 nm)×104 (thereby using the signal at 620 nm as an internal standard).
IC50 values were determined using 3- or 4-parameter logistic equation using GraphPad Prism version 6.00. The reference compound, A027, was used as a positive control for each plate.

[1] = system: ALPK1-dependent NFκB reporter gene activation; test: NFκB gene reporter alkaline phosphatase assay in HEK293 G9 cells; format: cell-based; conditions: Homo sapiens; HEK293 G9 cells stimulated with D-glycero-D-manno-6-fluoro-heptose-1β-S-ADP
Protocol: An alkaline phosphatase reporter assay system was used to measure inhibition of ALPK1-dependent NFκB reporter gene activation. Briefly, HEK293 cells stably expressing an NF-kB reporter (referred to herein as “G9 cells”) were maintained in DMEM as described above. For the assay, cells were seeded into 96-well plates at a density of 10,000 cells/well in Freestyle™ 293 Expression Medium (ThermoFisher), and allowed to attach overnight. Cells were pretreated with serially diluted compounds for 30 min and then stimulated with D-glycero-D-manno-6-fluoro-heptose-1β-S-ADP. […] NFkB gene activation was detected using the chromogenic substrate, para-nitrophenyl phosphate (pNPP) according to the manufacturer's protocols (pNPP Phosphatase Assay, Beyotime Biotechnology).

Chain of ALPK1 (Q96QP1 whole entry): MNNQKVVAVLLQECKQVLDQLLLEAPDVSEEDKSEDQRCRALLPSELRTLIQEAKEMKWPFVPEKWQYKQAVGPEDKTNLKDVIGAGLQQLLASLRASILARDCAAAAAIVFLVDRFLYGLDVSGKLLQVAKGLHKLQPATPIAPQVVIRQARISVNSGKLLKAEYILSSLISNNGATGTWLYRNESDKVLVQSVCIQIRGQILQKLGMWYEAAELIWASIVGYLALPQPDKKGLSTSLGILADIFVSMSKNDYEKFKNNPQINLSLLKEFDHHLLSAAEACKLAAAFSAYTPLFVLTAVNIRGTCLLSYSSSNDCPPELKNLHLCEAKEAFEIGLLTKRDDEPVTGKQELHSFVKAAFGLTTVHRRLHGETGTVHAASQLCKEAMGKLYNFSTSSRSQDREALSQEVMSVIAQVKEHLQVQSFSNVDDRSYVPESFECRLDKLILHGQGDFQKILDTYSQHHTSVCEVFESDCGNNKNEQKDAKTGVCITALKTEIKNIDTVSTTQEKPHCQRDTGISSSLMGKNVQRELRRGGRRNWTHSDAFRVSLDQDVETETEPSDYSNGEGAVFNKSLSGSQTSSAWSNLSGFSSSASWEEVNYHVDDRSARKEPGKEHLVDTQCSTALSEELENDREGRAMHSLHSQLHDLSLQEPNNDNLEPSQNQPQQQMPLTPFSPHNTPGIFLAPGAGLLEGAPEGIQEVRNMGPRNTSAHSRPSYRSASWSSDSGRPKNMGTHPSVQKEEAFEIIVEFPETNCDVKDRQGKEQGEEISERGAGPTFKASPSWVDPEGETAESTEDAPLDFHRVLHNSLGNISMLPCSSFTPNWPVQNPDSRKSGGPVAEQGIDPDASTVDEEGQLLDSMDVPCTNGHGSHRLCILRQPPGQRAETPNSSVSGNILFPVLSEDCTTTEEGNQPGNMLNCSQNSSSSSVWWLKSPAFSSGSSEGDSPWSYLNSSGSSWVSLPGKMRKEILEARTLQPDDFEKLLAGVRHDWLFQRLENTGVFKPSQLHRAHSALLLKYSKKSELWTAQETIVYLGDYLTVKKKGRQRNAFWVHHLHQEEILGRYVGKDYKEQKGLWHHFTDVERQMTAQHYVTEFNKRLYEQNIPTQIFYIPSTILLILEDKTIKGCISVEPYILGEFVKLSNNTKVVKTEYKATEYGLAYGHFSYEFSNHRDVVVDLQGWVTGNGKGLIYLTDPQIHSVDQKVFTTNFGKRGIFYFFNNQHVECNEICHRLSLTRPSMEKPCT

Compound | IC50 (ALPK1) | IC50 [1]
C#Cc1cccc2sc(NC(=O)c3c(F)cc(N4CCOCC4)cc3F)nc12 [Compound T063, N-(4-ethynylbenzo[d]thiazol-2-yl)-2,6-difluoro-4-morpholinobenzamide] | 165 nM | 1280 nM
C#Cc1cccc2sc(NC(=O)c3c(Cl)cc(N4CCNCC4)cc3Cl)nc12 [Compound T048, 2,6-dichloro-N-(4-ethynylbenzo[d]thiazol-2-yl)-4-(piperazin-1-yl)benzamide] | 9 nM | 7130 nM
COc1cccc2ccc(NC(=O)c3c(F)cc(N4CCC(O)CC4)cc3F)nc12 [Compound Q003, 2,6-difluoro-4-(4-hydroxypiperidin-1-yl)-N-(8-methoxyquinolin-2-yl)benzamide] | 369 nM | 2970 nM
COc1cccc2ccc(NC(=O)c3c(F)ccc(N4CCNCC4)c3F)nc12 [Compound Q005, 2,6-difluoro-N-(8-methoxyquinolin-2-yl)-3-(piperazin-1-yl)benzamide] | 258 nM | 1370 nM
C#Cc1cccc2sc(NC(=O)c3c(F)cc(N4CCNCC4C)cc3F)nc12 (centres unmarked) [Compound T059, N-(4-ethynylbenzo[d]thiazol-2-yl)-2,6-difluoro-4-(2-methylpiperazin-1-yl)benzamide] | 43 nM | 550 nM
COc1cc(OC)c2nc(NC(=O)c3c(F)cc(N4CCNCC4)cc3F)ccc2c1 [Compound Q006, N-(6,8-dimethoxyquinolin-2-yl)-2,6-difluoro-4-(piperazin-1-yl)benzamide] | – | 11100 nM
COc1cccc2sc(NC(=O)c3c(F)cc(C(=O)N4CCNCC4)cc3F)nc12 [Compound T040, 2,6-difluoro-N-(4-methoxybenzo[d]thiazol-2-yl)-4-(piperazine-1-carbonyl)benzamide] | 341 nM | 6330 nM
COc1cccc2sc(NC(=O)c3c(F)cc(N4CCN(CCO)CC4)cc3F)nc12 [Compound T025, 2,6-difluoro-4-(4-(2-hydroxyethyl)piperazin-1-yl)-N-(4-methoxybenzo[d]thiazol-2-yl)benzamide] | 148 nM | 2920 nM
C#Cc1cccc2sc(NC(=O)c3c(F)cc(-n4ccnc4)cc3F)nc12 [Compound T066, N-(4-ethynylbenzo[d]thiazol-2-yl)-2,6-difluoro-4-(1H-imidazol-1-yl)benzamide] | 367 nM | 1560 nM
COc1cc(F)cc2ccc(NC(=O)c3c(F)cc(N4CCNCC4)cc3F)nc12 [Compound Q007, 2,6-difluoro-N-(6-fluoro-8-methoxyquinolin-2-yl)-4-(piperazin-1-yl)benzamide] | 176 nM | 6780 nM
O=C(Nc1nc2c(F)cc(F)cc2s1)c1c(F)cc(N2CCNCC2)cc1F [Compound T035] | – | 5020 nM
COc1cccc2sc(NC(=O)c3c(F)cc(N4CCNC(C)C4)cc3F)nc12 (centres unmarked) [Compound T015, 2,6-difluoro-N-(4-methoxybenzo[d]thiazol-2-yl)-4-(3-methylpiperazin-1-yl)benzamide] | 349 nM | 4470 nM
COc1cccc2sc(NC(=O)c3c(F)cc(N4CC5CC(C4)N5)cc3F)nc12 [Compound T001, 4-(3,6-diazabicyclo[3.1.1]heptan-3-yl)-2,6-difluoro-N-(4-methoxybenzo[d]thiazol-2-yl)benzamide] | 95 nM | 1310 nM
COc1cccc2sc(NC(=O)c3c(F)cc(-c4cccc(C(=O)O)c4)cc3F)nc12 [Compound T003, 3′,5′-difluoro-4′-((4-methoxybenzo[d]thiazol-2-yl)carbamoyl)-[1,1′-biphenyl]-3-carboxylic acid] | 159 nM | 1490 nM
COc1cccc2ccc(NC(=O)c3c(F)cc(N4CCNCC4)cc3F)nc12 [Compound Q001, 2,6-difluoro-N-(8-methoxyquinolin-2-yl)-4-(piperazin-1-yl)benzamide] | 45 nM | 1240 nM
C#Cc1cccc2sc(NC(=O)c3c(F)cc(N4CC[C@H](N)C4)cc3F)nc12 [Compound T062, (S)-4-(3-aminopyrrolidin-1-yl)-N-(4-ethynylbenzo[d]thiazol-2-yl)-2,6-difluorobenzamide] | 89 nM | 880 nM
C#Cc1cccc2sc(NC(=O)c3c(C)cc(N4CCNCC4)cc3F)nc12 [Compound T050, N-(4-ethynylbenzo[d]thiazol-2-yl)-2-fluoro-6-methyl-4-(piperazin-1-yl)benzamide] | 98 nM | 960 nM

Compound | IC50 (ALPK1) | IC50 [1]
COc1cccc2sc(NC(=O)c3c(C)cc(N4CCNCC4)cc3F)nc12 [Compound T002, 2-fluoro-N-(4-methoxybenzo[d]thiazol-2-yl)-6-methyl-4-(piperazin-1-yl)benzamide] | 176 nM | 2460 nM
COc1cccc2ccc(NC(=O)c3c(F)ccc(CN4CCNCC4)c3F)nc12 [Compound Q004, 2,6-difluoro-N-(8-methoxyquinolin-2-yl)-3-(piperazin-1-ylmethyl)benzamide] | 33 nM | 4300 nM
O=C(Nc1nc2c(Br)cccc2s1)c1c(F)cc(N2CCNC(CO)C2)cc1F (centres unmarked) [Compound T033, N-(4-bromobenzo[d]thiazol-2-yl)-2,6-difluoro-4-(3-(hydroxymethyl)piperazin-1-yl)benzamide] | 38 nM | 1330 nM
COc1cccc2sc(NC(=O)c3c(F)cc(N4CCNCC4C)cc3F)nc12 (centres unmarked) [Compound T014, 2,6-difluoro-N-(4-methoxybenzo[d]thiazol-2-yl)-4-(2-methylpiperazin-1-yl)benzamide] | – | 1310 nM
COc1cc(Cl)cc2sc(NC(=O)c3c(F)cc(N4CCNCC4)cc3F)nc12 [Compound T043, N-(6-chloro-4-methoxybenzo[d]thiazol-2-yl)-2,6-difluoro-4-(piperazin-1-yl)benzamide] | 401 nM | 3980 nM
O=C(Nc1nc2ccccc2s1)c1c(F)cc(N2CCNCC2)cc1F [Compound T041, N-(benzo[d]thiazol-2-yl)-2,6-difluoro-4-(piperazin-1-yl)benzamide] | – | 3960 nM
Cc1cc(Cl)cc2sc(NC(=O)c3c(F)cc(N4CCNCC4)cc3F)nc12 [Compound T038, N-(6-chloro-4-methylbenzo[d]thiazol-2-yl)-2,6-difluoro-4-(piperazin-1-yl)benzamide] | 255 nM | 9980 nM
COc1cccc2sc(NC(=O)c3c(F)cc(OCCO)cc3F)nc12 [Compound T029, 2,6-difluoro-4-(2-hydroxyethoxy)-N-(4-methoxybenzo[d]thiazol-2-yl)benzamide] | 560 nM | 2990 nM
O=C(Nc1nc2c(Br)cccc2s1)c1c(F)cc(CCN2CCNCC2)cc1F [Compound T021, N-(4-bromobenzo[d]thiazol-2-yl)-2,6-difluoro-4-(2-(piperazin-1-yl)ethyl)benzamide] | 148 nM | 1200 nM
O=C(Nc1nc2c(Br)cccc2s1)c1c(F)cccc1F [Compound T009, N-(4-bromobenzo[d]thiazol-2-yl)-2,6-difluorobenzamide] | 415 nM | 5860 nM
C#Cc1cccc2sc(NC(=O)c3c(F)cc(N4CCN(Cc5ccc(F)cc5)CC4)cc3F)nc12 [Compound T065, N-(4-ethynylbenzo[d]thiazol-2-yl)-2,6-difluoro-4-(4-(4-fluorobenzyl)piperazin-1-yl)benzamide] | 182 nM | 6580 nM
CCCN1CCN(c2cc(F)c(C(=O)Nc3nc4c(OC)cccc4s3)c(F)c2)CC1 [Compound T005, 2,6-difluoro-N-(4-methoxybenzo[d]thiazol-2-yl)-4-(4-propylpiperazin-1-yl)benzamide] | 81 nM | 2420 nM
COc1cccc2sc(NC(=O)c3c(F)cc(CN4CCNCC4)cc3F)nc12 [Compound T018, 2,6-difluoro-N-(4-methoxybenzo[d]thiazol-2-yl)-4-(piperazin-1-ylmethyl)benzamide] | – | 2460 nM
CN1CCN(c2cc(F)c(C(=O)Nc3nc4c(Br)cccc4s3)c(F)c2)CC1 [Compound T044, N-(4-bromobenzo[d]thiazol-2-yl)-2,6-difluoro-4-(4-methylpiperazin-1-yl)benzamide] | 13 nM | 1090 nM
CC(C)Oc1cccc2sc(NC(=O)c3c(F)cc(N4CCNCC4)cc3F)nc12 [Compound T056, 2,6-difluoro-N-(4-isopropoxybenzo[d]thiazol-2-yl)-4-(piperazin-1-yl)benzamide] | – | 7400 nM
CCOc1cccc2sc(NC(=O)c3c(F)cc(N4CCNCC4)cc3F)nc12 [Compound T057, N-(4-ethoxybenzo[d]thiazol-2-yl)-2,6-difluoro-4-(piperazin-1-yl)benzamide] | – | 8700 nM
